What follows are molecules tested on KRas G12D-mediated phosphorylation of ERK (assay: Inhibition of KRas G12D-mediated phosphorylation of ERK in AGS cells). Settings: Homo sapiens; AGS cells expressing G12D, 3 hours, phospho-ERK normalized to GAPDH.
Type: cell-based
Procedure, shortened: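 Fixed, methanol-permeabilized; phospho-ERK (Thr202/Tyr204) by in-cell immunofluorescence normalized to GAPDH. Percent of DMSO control, IC50 by 4-parameter fit.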

| SMILES | IC50 |
| --- | --- |
| CCc1cccc2cccc(-c3ncc4c(N5C[C@H]6CC[C@@H](C5)N6)nc(OCC56CCCN5CCC6)nc4c3F)c12 [Example 187, 4-((1R,5S)-3,8-diazabicyclo[3.2.1]octan-3-yl)-7-(8-ethylnaphthalen-1-yl)-8-fluoro-2-((tetrahydro-1H-pyrrolizin-7a(5H)-yl)methoxy)pyrido[4,3-d]pyrimidine] | 450 nM |
| C#Cc1c(F)ccc2cccc(-c3ncc4c(N5C[C@H]6CC[C@@H](C5)N6)nc(OCC56CCCN5CCC6)nc4c3F)c12 [Example 189, 4-((1R,5S)-3,8-diazabicyclo[3.2.1]octan-3-yl)-7-(8-ethynyl-7-fluoronaphthalen-1-yl)-8-fluoro-2-((tetrahydro-1H-pyrrolizin-7a(5H)-yl)methoxy)pyrido[4,3-d]pyrimidine] | 24.1 nM |
| Cc1c(-c2cc(O)cc3ccccc23)ncc2c(N3C[C@H]4CC[C@@H](C3)N4)nc(OC[C@@H]3CCCN3C)nc12 [Example 190, 4-(4-((1R,5S)-3,8-diazabicyclo[3.2.1]octan-3-yl)-8-methyl-2-(((S)-1-methylpyrrolidin-2-yl)methoxy)pyrido[4,3-d]pyrimidin-7-yl)naphthalen-2-ol] | 16300 nM |
| CN1CCC[C@H]1COc1nc(N2C[C@H]3CC[C@@H](C2)N3)c2cnc(-c3cc(O)cc4ccccc34)c(Cl)c2n1 [Example 191, 4-(4-((1R,5S)-3,8-diazabicyclo[3.2.1]octan-3-yl)-8-chloro-2-(((S)-1-methylpyrrolidin-2-yl)methoxy)pyrido[4,3-d]pyrimidin-7-yl)naphthalen-2-ol] | 5050 nM |
| OCC#Cc1cccc2cccc(-c3ncc4c(N5C[C@H]6CC[C@@H](C5)N6)nc(OCC56CCCN5CCC6)nc4c3F)c12 [Example 193, 3-(8-(4-((1R,5S)-3,8-diazabicyclo[3.2.1]octan-3-yl)-8-fluoro-2-((tetrahydro-1H-pyrrolizin-7a(5H)-yl)methoxy)pyrido[4,3-d]pyrimidin-7-yl)naphthalen-1-yl)prop-2-yn-1-ol] | 8520 nM |
| CC#Cc1cccc2cccc(-c3ncc4c(N5C[C@H]6CC[C@@H](C5)N6)nc(OCC56CCCN5CCC6)nc4c3F)c12 [Example 195, 4-((1R,5S)-3,8-diazabicyclo[3.2.1]octan-3-yl)-8-fluoro-7-(8-(prop-1-yn-1-yl)naphthalen-1-yl)-2-((tetrahydro-1H-pyrrolizin-7a(5H)-yl)methoxy)pyrido[4,3-d]pyrimidine] | 2460 nM |
| Fc1c(-c2cccc(C(F)(F)F)c2C(F)(F)F)ncc2c(N3C[C@H]4CC[C@@H](C3)N4)nc(OCC34CCCN3CCC4)nc12 [Example 197, 4-((1R,5S)-3,8-diazabicyclo[3.2.1]octan-3-yl)-7-(2,3-bis(trifluoromethyl)phenyl)-8-fluoro-2-((tetrahydro-1H-pyrrolizin-7a(5H)-yl)methoxy)pyrido[4,3-d]pyrimidine] | > 16700 nM |
| N#Cc1cccc2cccc(-c3ncc4c(N5C[C@H]6CC[C@@H](C5)N6)nc(OCC56CCCN5CCC6)nc4c3F)c12 [Example 198, 8-(4-((1R,5S)-3,8-diazabicyclo[3.2.1]octan-3-yl)-8-fluoro-2-((tetrahydro-1H-pyrrolizin-7a(5H)-yl)methoxy)pyrido[4,3-d]pyrimidin-7-yl)-1-naphthonitrile] | 2430 nM |
| CSc1cccc2cccc(-c3ncc4c(N5C[C@H]6CC[C@@H](C5)N6)nc(OCC56CCCN5CCC6)nc4c3F)c12 [Example 199, 4-((1R,5S)-3,8-diazabicyclo[3.2.1]octan-3-yl)-8-fluoro-7-(8-(methylthio)naphthalen-1-yl)-2-((tetrahydro-1H-pyrrolizin-7a(5H)-yl)methoxy)pyrido[4,3-d]pyrimidine] | 465 nM |
| C=Cc1cccc2cccc(-c3ncc4c(N5C[C@H]6CC[C@@H](C5)N6)nc(OC[C@@H]5CCCN5C)nc4c3F)c12 [Example 201, 4-((1R,5S)-3,8-diazabicyclo[3.2.1]octan-3-yl)-8-fluoro-2-(((S)-1-methylpyrrolidin-2-yl)methoxy)-7-(8-vinylnaphthalen-1-yl)pyrido[4,3-d]pyrimidine] | 13900 nM |

From patent US11453683B1, “KRas G12D inhibitors” (Mirati Therapeutics, Inc., priority 2019, dated 2022)
